Experimental data: patent US11407768B2, “AMPK activators” (Kallyope, Inc., priority 2020, dated 2022)
pEC50: −log10 of the molar value.

Molecular target: Recombinant AMPK α1/β1/γ1 complex (Homo sapiens (Human), UniProt Q13131+Q9Y478)
Test: In vitro pAMPK1 kinase activation assay (ADP-Glo, SAMS peptide)
Type: biochemical
Details: AMPK α1/β1/γ1 pre-activated with CAMKK2; 12-point curve; 15 min compound incubation
Description: Compound effect on AMPK enzyme activation was determined in a cell-free format with a 12-point concentration curve. The ADP-Glo detection system was used to determine phosphorylation of a SAMS peptide substrate. Recombinant AMPK α1/β1/γ1 complex was pre-activated by phosphorylation with CAMKK2 followed by incubated with compound for 15 minutes prior to the SAMS phosphorylation reaction. Activity curves and EC50 values were fitted by interpolation to an ATP:ADP standard curve as indicated by the ADP-Glo manufacturer using Prism software.

Sequence of Recombinant AMPK α1/β1/γ1 complex (Q13131 whole entry): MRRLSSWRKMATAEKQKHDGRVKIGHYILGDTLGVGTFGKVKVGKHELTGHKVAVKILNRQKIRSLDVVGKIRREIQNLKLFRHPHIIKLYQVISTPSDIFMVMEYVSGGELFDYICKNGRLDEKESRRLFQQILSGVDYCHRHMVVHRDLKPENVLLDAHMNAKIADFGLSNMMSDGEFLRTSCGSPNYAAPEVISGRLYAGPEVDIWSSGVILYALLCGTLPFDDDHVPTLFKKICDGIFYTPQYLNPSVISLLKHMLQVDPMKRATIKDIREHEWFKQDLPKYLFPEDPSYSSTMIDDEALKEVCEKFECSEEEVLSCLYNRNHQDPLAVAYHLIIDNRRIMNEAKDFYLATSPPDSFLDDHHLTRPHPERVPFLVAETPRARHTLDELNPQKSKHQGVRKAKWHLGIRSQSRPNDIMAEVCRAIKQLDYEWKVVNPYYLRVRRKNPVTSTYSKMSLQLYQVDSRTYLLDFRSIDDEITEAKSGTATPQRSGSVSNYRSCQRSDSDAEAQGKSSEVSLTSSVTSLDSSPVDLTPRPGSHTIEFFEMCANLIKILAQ
Sequence of Recombinant AMPK α1/β1/γ1 complex (Q9Y478 whole entry): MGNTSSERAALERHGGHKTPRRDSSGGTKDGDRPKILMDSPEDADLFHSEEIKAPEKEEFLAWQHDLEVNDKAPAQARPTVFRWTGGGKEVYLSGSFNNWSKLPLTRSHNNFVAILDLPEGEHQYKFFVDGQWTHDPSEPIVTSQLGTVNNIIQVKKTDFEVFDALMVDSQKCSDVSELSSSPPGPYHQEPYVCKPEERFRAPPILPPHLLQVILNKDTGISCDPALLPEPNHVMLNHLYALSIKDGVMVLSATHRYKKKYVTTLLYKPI
Sequence of Recombinant AMPK α1/β1/γ1 complex (P54619 whole entry partner): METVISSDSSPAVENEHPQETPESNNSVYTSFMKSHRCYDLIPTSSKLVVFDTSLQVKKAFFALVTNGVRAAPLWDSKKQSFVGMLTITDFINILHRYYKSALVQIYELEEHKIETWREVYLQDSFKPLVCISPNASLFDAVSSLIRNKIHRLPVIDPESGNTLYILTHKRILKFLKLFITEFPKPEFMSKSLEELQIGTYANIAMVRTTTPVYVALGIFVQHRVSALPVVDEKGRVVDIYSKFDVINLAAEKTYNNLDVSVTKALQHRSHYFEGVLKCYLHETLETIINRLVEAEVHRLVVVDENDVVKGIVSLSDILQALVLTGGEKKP

Row | Compound | pEC50
1 | OCC(CO)(CO)NCc1ccc(-c2ccc(-c3cc4nc(O[C@@H]5CO[C@H]6[C@@H]5OC[C@H]6O)[nH]c4cc3Cl)cc2)cc1 [Compound 36, 2-(((4′-(6-chloro-2-(((3R,3aR,6R,6aR)-6-hydroxyhexahydrofuro[3,2-b]furan-3-yl)oxy)-1H-benzo[d]imidazol-5-yl)-[1,1′-biphenyl]-4-yl)methyl)amino)-2-(hydroxymethyl)propane-1,3-diol] | 9.08
2 | OCCOCCNCc1ccc(-c2ccc(-c3cc4nc(O[C@@H]5CO[C@H]6[C@@H]5OC[C@H]6O)[nH]c4cc3Cl)cc2)c(O)c1 [Compound 74] | 9.82
3 | O=C(NCCS(=O)(=O)O)c1ccc(-c2ccc(-c3nc4nc(O[C@@H]5CO[C@H]6[C@@H]5OC[C@H]6O)[nH]c4cc3Cl)cc2)cc1 [Compound 5, 2-(4′-(6-chloro-2-(((3R,3aR,6R,6aR)-6-hydroxyhexahydrofuro[3,2-b]furan-3-yl)oxy)-1H-imidazo[4,5-b]pyridin-5-yl)-[1,1′-biphenyl]-4-ylcarboxamido)ethanesulfonic acid] | 9.07
4 | OC[C@@H](O)[C@@H](O)[C@H](O)[C@@H](O)CNCc1ccc(-c2ccc(-c3cc4nc(O[C@@H]5CO[C@H]6[C@@H]5OC[C@H]6O)[nH]c4cc3Cl)cc2)cc1 [Compound 65, (2R,3R,4R,5S)-6-(((4′-(6-chloro-2-(((3R,3aR,6R,6aR)-6-hydroxyhexahydrofuro[3,2-b]furan-3-yl)oxy)-1H-benzo [d]imidazol-5-yl)-[1,1′-biphenyl]-4-yl)methyl)amino)hexane-1,2,3,4,5-pentaol] | 9.11
5 | O=S(=O)(NC[C@H](O)[C@@H](O)[C@H](O)[C@H](O)CO)c1ccc(-c2ccc(-c3cc4nc(O[C@@H]5CO[C@H]6[C@@H]5OC[C@H]6O)[nH]c4cc3Cl)cc2)cc1 [Compound 71] | 9.20
6 | O=S(=O)(NC[C@H](O)[C@@H](O)[C@H](O)[C@H](O)CO)c1ccc(-c2ccc(-c3nc4nc(O[C@@H]5CO[C@H]6[C@@H]5OC[C@H]6O)[nH]c4cc3Cl)cc2)cc1 [Compound 3, 4′-(6-chloro-2-(((3R,3aR,6R,6aR)-6-hydroxyhexahydrofuro[3,2-b]furan-3-yl)oxy)-1H-imidazo [4,5-b]pyridin-5-yl)-N-((2S,3R,4R,5R)-2,3,4,5,6-pentahydroxyhexyl)-[1,1′-biphenyl]-4-sulfonamide] | 10.05
7 | O[C@@H]1CO[C@H]2[C@@H]1OC[C@H]2Oc1nc2cc(-c3ccc(-c4ccc(CN5C[C@@H](O)[C@@H](O)C5)cc4)cc3)c(Cl)cc2[nH]1 [Compound 61, (3S,4R)-1-((4′-(6-chloro-2-(((3R,3aR,6R,6aR)-6-hydroxyhexahydrofuro[3,2-b]furan-3-yl)oxy)-1H-benzo[d]imidazol-5-yl)-[1,1′-biphenyl]-4-yl)methyl)pyrrolidine-3,4-diol] | 8.87
8 | CN(CCOCCO)Cc1ccc(-c2ccc(-c3cc4nc(O[C@@H]5CO[C@H]6[C@@H]5OC[C@H]6O)[nH]c4cc3Cl)cc2)cc1 [Compound 62, (3R,3aR,6R,6aR)-6-((6-chloro-5-(4′-(((2-(2-hydroxyethoxy)ethyl)(methyl)amino)methyl)-[1,1′-biphenyl]-4-yl)-1H-benzoldlimidazol-2-yl)oxy)hexahydrofuro[3,2-b]furan-3-ol] | 8.89
9 | O[C@@H]1CO[C@H]2[C@@H]1OC[C@H]2Oc1nc2cc(-c3ccc(-c4ccc(CN5CCNCC5)cc4)cc3)c(Cl)cc2[nH]1 [Compound 49, (3R,3aR,6R,6aR)-6-((6-chloro-5-(4′-(piperazin-1-ylmethyl)-[1,1′-biphenyl]-4-yl)-1H-benzo[d]imidazol-2-yl)oxy)hexahydrofuro[3,2-b]furan-3-ol] | 8.75
10 | CC(NC[C@H](O)[C@@H](O)[C@H](O)[C@H](O)CO)c1ccc(-c2ccc(-c3nc4nc(O[C@@H]5CO[C@H]6[C@@H]5OC[C@H]6O)[nH]c4cc3Cl)cc2)cc1 (stereo partly shown) [Compound 73] | 8.88
